Values joined by “and” are separate entries in the source; they are usually repeats but may differ in a detail not shown here. Identical values can stand only once.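 Following 48 hours of exposure in 96-well plates, responses at five concentrations were used to interpolate endpoints linearly. GI50 is the concentration that inhibits growth by half. TGI: concentration producing complete growth inhibition.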
Experiments:
Experiment in all cases: NCI-60 cell line screen, 48 h
DU-145 prostate = tested on: DU-145 prostate
HCT-15 colon = tested on: HCT-15 colon
NCI-H226 lung = tested on: NCI-H226 lung
NCI-H23 lung = tested on: NCI-H23 lung
OVCAR-5 ovarian = tested on: OVCAR-5 ovarian
SR leukemia = tested on: SR leukemia
T-47D breast = tested on: T-47D breast
UO-31 renal = tested on: UO-31 renal
SK-MEL-5 melanoma = tested on: SK-MEL-5 melanoma
A549 NSCLC = tested on: A549 NSCLC

SMILES: COC(=O)C1=C(O)C(C(=O)OC)[C@@]2(O)[C@@H](C(=O)OC)[C@H](C)C[C@@H]1[C@@H]2C(=O)OC (stereo not given in full)
- TGI (DU-145 prostate): 50.5 µM
- TGI (HCT-15 colon): 92.6 µM
- TGI (NCI-H226 lung): > 100 µM
- TGI (NCI-H23 lung): > 100 µM
- TGI (OVCAR-5 ovarian): 98.9 µM
- TGI (SR leukemia): > 100 µM
- TGI (T-47D breast): > 100 µM
- TGI (UO-31 renal): 67.6 µM

SMILES: O=c1c(-c2ccccc2)c(SCCCN2CCCCC2)n(-c2ccccc2)c(=S)n1-c1ccccc1
- TGI (DU-145 prostate): 34.1 µM
- TGI (HCT-15 colon): 38.7 µM
- TGI (NCI-H226 lung): 30.4 µM
- TGI (NCI-H23 lung): 42.9 µM
- TGI (OVCAR-5 ovarian): > 100 µM
- TGI (SK-MEL-5 melanoma): 30.8 µM
- TGI (SR leukemia): 37.3 µM

SMILES: O=c1[nH]c2ccccc2c2oc3ccccc3c12
- TGI (A549 NSCLC): > 100 µM
- TGI (DU-145 prostate): > 100 µM
- TGI (HCT-15 colon): > 100 µM
- TGI (NCI-H226 lung): > 100 µM
- TGI (NCI-H23 lung): > 100 µM
- TGI (SK-MEL-5 melanoma): > 100 µM
- TGI (SR leukemia): > 100 µM
- TGI (T-47D breast): > 100 µM
- TGI (UO-31 renal): > 100 µM

SMILES: O=[N+]([O-])c1ccc(N/N=C\c2cc(Br)ccc2O)nc1
- GI50 (A549 NSCLC): 2.84 µM
- TGI (A549 NSCLC): 29.8 µM
- GI50 (DU-145 prostate): 0.912 µM
- TGI (DU-145 prostate): 5.77 µM
- GI50 (HCT-15 colon): 0.437 µM
- TGI (HCT-15 colon): > 100 µM
- GI50 (NCI-H226 lung): 3.11 µM
- TGI (NCI-H226 lung): > 100 µM
- GI50 (NCI-H23 lung): 1.23 µM
- TGI (NCI-H23 lung): 10.9 µM
- GI50 (OVCAR-5 ovarian): 5.51 µM
- TGI (OVCAR-5 ovarian): > 100 µM
- GI50 (SK-MEL-5 melanoma): 1.32 µM
- TGI (SK-MEL-5 melanoma): 10.9 µM
- GI50 (SR leukemia): 0.463 µM
- TGI (SR leukemia): > 100 µM
- GI50 (T-47D breast): 2.07 µM
- TGI (T-47D breast): > 100 µM
- GI50 (UO-31 renal): 0.376 µM
- TGI (UO-31 renal): 2.01 µM

SMILES: O=c1c2ccccc2nc2n1CCc1c-2[nH]c2ccccc12
- GI50 (A549 NSCLC): 14.5 µM
- TGI (A549 NSCLC): 37.4 µM
- TGI (DU-145 prostate): 33.5 µM
- TGI (NCI-H23 lung): 37.4 µM
- TGI (OVCAR-5 ovarian): 31.2 µM
- TGI (SK-MEL-5 melanoma): 28.6 µM
- TGI (SR leukemia): > 100 µM
- TGI (T-47D breast): 55.5 µM
- TGI (UO-31 renal): 28.1 µM

SMILES: NCCCCNOCCCN
- TGI (A549 NSCLC): > 100 µM
- TGI (DU-145 prostate): > 100 µM
- TGI (NCI-H226 lung): > 100 µM
- TGI (NCI-H23 lung): > 100 µM
- TGI (OVCAR-5 ovarian): > 100 µM
- TGI (SK-MEL-5 melanoma): > 100 µM
- TGI (SR leukemia): > 100 µM
- TGI (T-47D breast): > 100 µM
- TGI (UO-31 renal): > 100 µM

SMILES: COC(=O)C(C)NP(=O)(OCc1cccc(Cn2cnc3c(N)ncnc32)c1)Oc1ccccc1 (stereo not given)
- GI50 (A549 NSCLC): > 100 µM
- TGI (A549 NSCLC): > 100 µM
- GI50 (DU-145 prostate): > 100 µM
- TGI (DU-145 prostate): > 100 µM
- GI50 (HCT-15 colon): > 100 µM
- TGI (HCT-15 colon): > 100 µM
- GI50 (NCI-H226 lung): > 100 µM
- TGI (NCI-H226 lung): > 100 µM
- GI50 (NCI-H23 lung): 66 µM
- TGI (NCI-H23 lung): > 100 µM
- GI50 (OVCAR-5 ovarian): > 100 µM
- TGI (OVCAR-5 ovarian): > 100 µM
- GI50 (SK-MEL-5 melanoma): 54.1 µM
- TGI (SK-MEL-5 melanoma): > 100 µM
- GI50 (SR leukemia): 55.4 µM
- TGI (SR leukemia): > 100 µM
- GI50 (UO-31 renal): > 100 µM
- TGI (UO-31 renal): > 100 µM

SMILES: CCOC(=O)c1c(Cl)c2c(n1Cc1ccccc1)-c1oncc1CCC2
- GI50 (DU-145 prostate): > 100 µM
- TGI (DU-145 prostate): > 100 µM
- GI50 (HCT-15 colon): 3.39 µM
- TGI (HCT-15 colon): > 100 µM
- GI50 (NCI-H226 lung): > 100 µM
- TGI (NCI-H226 lung): > 100 µM
- GI50 (OVCAR-5 ovarian): > 100 µM
- TGI (OVCAR-5 ovarian): > 100 µM
- GI50 (SK-MEL-5 melanoma): 3.53 µM
- TGI (SK-MEL-5 melanoma): > 100 µM
- GI50 (SR leukemia): 1.8 µM
- TGI (SR leukemia): 8.24 µM
- GI50 (T-47D breast): 2.69 µM
- TGI (T-47D breast): > 100 µM

SMILES: C/C=C(/CCC1NCCc2c1[nH]c1ccccc21)[Si](C)(C)C (stereo not given)
- TGI (A549 NSCLC): > 100 µM and 29.7 µM
- TGI (HCT-15 colon): 18.5 µM
- TGI (NCI-H226 lung): > 100 µM and 31.4 µM
- GI50 (NCI-H23 lung): 87.1 µM and 11.1 µM
- TGI (NCI-H23 lung): > 100 µM and 25.5 µM
- TGI (OVCAR-5 ovarian): > 100 µM and 14.6 µM
- TGI (SK-MEL-5 melanoma): > 100 µM and 11.8 µM
- TGI (UO-31 renal): > 100 µM and 17.3 µM

SMILES: CC(C)(C)OC(=O)CC(NC(=O)OCc1ccccc1)NC(=O)OC(C)(C)C (stereo not given)
- GI50 (A549 NSCLC): 35.2 µg/mL
- GI50 (DU-145 prostate): 72.3 µg/mL
- GI50 (HCT-15 colon): 56 µg/mL
- GI50 (NCI-H23 lung): 39.1 µg/mL
- GI50 (SR leukemia): 27.8 µg/mL
- TGI (SR leukemia): 67.7 µg/mL
- GI50 (T-47D breast): 26 µg/mL
- GI50 (UO-31 renal): 27 µg/mL

Reference: PubChem BioAssay (NCI)
